Row | SMILES | melting point
1 | Cc1ccc(C(=O)Nc2ccc(N3CCN(C(=O)OC(C)(C)C)CC3)cc2)c(-c2ccc(C(C)C)cc2)c1 | 173 to 175 °C
2 | CNCCOc1cc(NC(=O)c2ccc(-c3ccc(-c4noc(C)n4)cc3C)cc2)ccc1OC | 97 to 99 °C
3 | CCCNC(=O)c1ccc(-c2ccc3nnn(Cc4ccc5ncccc5c4)c3n2)cc1F | 157 to 159 °C
4 | O=[N+]([O-])c1ccc(Br)cc1CS(=O)(=O)c1ccccc1 | 143 to 144 °C
5 | CCNC1=C(c2ccc(O)cc2)C(=O)c2cc(O)ccc21 | 250 °C
6 | CCc1c(C=CC(=O)O)ccc2c1OCO2 | 204 °C
7 | CCCCCCCCCCC1(CCCCCCCCCC)c2cc(Br)ccc2-c2ccc(C=O)cc21 | 45 to 47 °C
8 | CC(=O)c1ccc(OCCCCl)cc1O | 74 °C
9 | O=C(O)C(=O)c1cnsn1 | 130 to 133 °C
10 | COC(=O)c1cc(Cl)c(C(=O)OC)cc1Cl | 134 to 135 °C
11 | CCc1noc(C)c1-c1c(C(O)CN(C)C)c2ccccc2n1C (stereo not given) | 119 to 121 °C
12 | C=CCOc1cccc(-c2c(O)c3ccc(Cl)cc3[nH]c2=O)c1 | > 300 °C
13 | COc1nc(NCCCN2CCOCC2)nc(OC)c1NC(=O)c1coc(Oc2cccc(C(C)(C)C)c2)n1 | 85 °C
14 | Fc1ccc(NC(=S)NN2CC=CCC2)cc1 | 163 to 164 °C
15 | COC(=O)N(c1cc(C)ccc1C(=O)c1ccc(F)cc1)C(C)C | 92 to 94 °C
16 | CCOC(=O)c1ccc(NCc2ccc(OC)cc2)cc1 | 128 to 130 °C
17 | CC(C)c1csc2[nH]c(=O)c(=O)[nH]c12 | > 250 °C
18 | c1ccc(OCCSCc2nnc(-c3ccc(OCCN4CCOCC4)cc3)o2)cc1 | 70 to 72 °C
19 | N#CCC(=O)N[C@H]1CC[C@H](CCN2CCC(c3cccc4c3CCO4)CC2)CC1 | 194 °C
20 | Nc1nc(NCCC2=CCCCC2)nc2c1ncn2C1OC(CO)C(O)C1O (stereo not given) | 135 to 138 °C
21 | CC(C)(CO)NC(=O)c1ccccc1 | 80 to 82 °C
22 | CN1CCC(NC(c2cccc(C(F)(F)F)c2)c2nc3ccccc3[nH]2)CC1 (stereo not given) | 90 °C
23 | COc1ccc2c(c1)C(=O)C(=Cc1cccc([N+](=O)[O-])c1)CC2 | 175 to 176 °C
24 | CCCCCOc1cc(-n2c(=O)cc(C(F)(F)F)n(C)c2=O)c(F)cc1Cl | 64 to 66 °C
25 | c1cnc2ccc(Cn3nnc4ccc(-c5cnn(C6CCNCC6)c5)nc43)cc2c1 | 188 to 191 °C

Row | SMILES | melting point
26 | COc1ccc(C(=O)c2cccc(F)c2F)c(O)c1Cl | 161 to 162 °C
27 | O=C(O)c1ccc(-n2cc(C3c4ccccc4C=Cc4ccccc43)c(=S)[nH]c2=O)cc1 | 320 °C
28 | O=C1c2ccc(=O)[nH]c2CC2CCCCC12 (stereo not given) | 301 to 303 °C
29 | CCOC(=O)C1=C(C)NC(C)=C(C(=O)OCCN2CCN(C(c3ccc(C)cc3)c3ccc(C)cc3)CC2)C1c1cccc(Cl)c1 (stereo not given) | 79 to 81 °C
30 | O=C(O)CNC1CCCc2ccccc21 (stereo not given) | 227 °C
31 | CSC(=NCCSCc1ccc(CN(C)C)o1)NC#N | 78 to 79 °C
32 | CCCc1c(OCCCOc2ccc(C(=O)NCCCCc3cccnc3)cc2)ccc(C(C)=O)c1O | 133 to 134 °C
33 | O=S(=O)(c1ccc(O)cc1)N(CC(F)(F)F)c1ccc(O)cc1 | 172 to 173 °C
34 | CC(F)(C(=O)O)c1ccc(OS(=O)(=O)C(F)(F)F)cc1 (stereo not given) | 91 to 94 °C
35 | CS(=O)(=O)c1cccc(-c2cc(N3CCOCC3)cc(Nc3ccc(OC(F)(F)F)cc3)n2)c1 | 233 to 235 °C
36 | CCOC(=O)c1cc2c3ccccc3n(Cc3ccccc3)c2nc1N1CCCCC1 | 155 to 156 °C
37 | CC1(O)CCCc2nc3ccccc3c(N)c21 (stereo not given) | 250 °C
38 | N#Cc1ccc(F)c(-c2ccc(OC(F)(F)F)cc2)c1 | 63.5 to 64.2 °C
39 | COc1cccc2c1nc(C(F)F)n2-c1nc(N2CCOCC2)c2ncn(-c3cccnc3)c2n1 | 229 to 231 °C
40 | Cc1ncoc1C(C)(O)c1ccccc1 (stereo not given) | 102 to 104 °C
41 | Cc1cc2c(cc1C)n(C1CCNCC1)c(=O)n2C | 171 to 172 °C
42 | O=c1[nH]c2ccccc2n1CCCN1CCC(c2noc3cccc(F)c23)CC1 | 174 to 175 °C
43 | Cc1nc2c(O)c(CCC(=O)c3ccccc3F)c(C(=O)N(C)C)cc2n1C | 218 to 221 °C
44 | CC(COc1cccc2ccccc12)Nc1ccc(C(=O)O)cc1 (stereo not given) | 194 to 197 °C
45 | Cc1nc(-n2cnn(Cc3ccc(F)cc3)c2=O)sc1C(=O)NCc1nccs1 | 189 to 190 °C
46 | CCC1(C)CC(O)CC(C)(C)N1OC(C)(C)C#N (stereo not given) | 48 to 60 °C
47 | CCOC(=O)c1nc2cccc(F)c2nc1C | 87 to 89 °C
48 | CN1N=C(c2ccc(F)cc2)c2ccc(F)cc2CS1(=O)=O | 205 to 206 °C
49 | O=c1c2ccccc2ncn1C1CCN(Cc2ccccc2)CC1 | 147 °C
50 | CCOCCn1c(CN2CCN(CC(O)COc3ccccc3)CC2)nc2cccnc21 (stereo not given) | 102 °C

Row | SMILES | melting point
51 | COC(=O)c1cc(OCc2ccc(OCc3nc(-c4ccccc4)oc3C)c(OC)c2)nn1-c1ccccc1 | 143 to 144 °C
52 | O=C(O)c1ccc(CCCOCCCCCCBr)cc1 | 70 to 71 °C
53 | COC(=O)C=CC(CNC(=O)C(C)(Cc1c[nH]c2ccccc12)NC(=O)OC1C2CC3CC(C2)CC1C3)c1ccccc1 (stereo not given) | 80 to 93 °C
54 | CC(=O)C(=NNc1ccccc1)C(=O)N(C(C)C)C(C)C | 143 to 145 °C
55 | CC(c1c[nH]cn1)c1cccc(C(=N)N)c1O (stereo not given) | 191 °C
56 | CS(=O)(=O)Nc1ccc(C=C2c3ccccc3CCc3ccccc32)cc1 | 211 °C
57 | CC(=O)c1cc(-c2ccc(S(C)(=O)=O)cc2)c(-c2ccc(F)cc2)s1 | 169 to 172 °C
58 | COc1ccc(-c2c(C(=O)O)n(Cc3ccc4c(c3)OCO4)c3ccccc23)cc1 | 109 to 111 °C
59 | CC(=O)OCC(=O)CS(=O)(=O)C(c1ccc(Cl)cc1)c1ccc(Cl)cc1 | 57 to 60 °C
60 | CCNC(CO)Cc1cn(Cc2ccccc2)cn1 (stereo not given) | 109 to 110 °C
61 | COC(=O)C1=C(C)NC(C)=C(C(=O)OC)C1c1ccccc1Cl | 188 to 189 °C
62 | COc1cc2c(c(-c3ccccc3F)c1)OC(CN)C2 (stereo not given) | > 250 °C
63 | CCOCc1nc2c(N)nc3ccccc3c2n1CC1(NC(=O)OCC)CCCCC1 | 95 to 100 °C
64 | CN(C)c1ccc(-c2nc3cccnc3o2)cc1 | 168 to 170 °C
65 | COC(=O)c1cccc2nc(N3CCOCC3)n(Cc3ccc(-c4ccccc4-c4nnn[nH]4)cc3)c12 | 163 to 167 °C
66 | COc1ccc(C2CNC(=O)C2)cc1OCC(CN1CCN(c2ccccc2)CC1)OC(C)=O (stereo not given) | 128 to 133 °C
67 | Cc1csc(C(O)(c2nc(C)cs2)C(F)(F)F)n1 | 140 to 142 °C
68 | CCC(C)(C)N=C(NC#N)Nc1cc(Cl)cc(Cl)c1 | 151 to 153 °C
69 | NS(=O)(=O)c1nc(-c2ccc([N+](=O)[O-])cc2)c[nH]1 | 227 to 229 °C
70 | Nc1ccc(C=CC(=O)N2CCc3c([nH]c4ccccc34)C2c2ccc3c(c2)OCO3)cc1 (stereo not given) | 262 to 265 °C
71 | COc1ccc(Cl)c(Oc2c(Cl)ncnc2NS(=O)(=O)c2ccc(C(C)C)cn2)c1 | 174 to 175 °C
72 | COc1ccc(CCCN)cc1Cl | 55 to 56 °C
73 | CCCOC(=O)OC1CSC(Oc2ccc3c(C)cc(=O)oc3c2)C(OC(=O)OCCC)C1OC(=O)OCCC (stereo not given) | 134 °C
74 | Cn1c(C(F)(F)F)cc(=O)n(-c2ccc3snc(C(Cl)Br)c3c2)c1=O (stereo not given) | 93 to 96 °C
75 | CN(C)c1ccc(N=Nc2ccc(C(=O)Nc3ccc4[nH]nnc4c3)cc2)cc1 | 246 °C

Row | SMILES | melting point
76 | O=c1c(Cl)c(Cl)cnn1-c1ccc([N+](=O)[O-])cc1 | 221 °C
77 | CCCCCCCC(=O)NCc1cccc(-c2ccc(CCC(=O)O)cc2)c1 | 124 to 125 °C
78 | O=C1NC(=Cc2ccc(Cl)cc2)C(=O)C1=NO | 190 °C
79 | Nc1nccc(Oc2ccc3c(c2)CCCCN3C(=O)Nc2cccc(C(F)(F)F)c2)n1 | 207 °C
80 | COC(=O)c1cccc(N2CC(C)=CC2=O)c1 | 87 to 89 °C
81 | COC(=O)C1=C(C)NC(CC(=O)N2CCN(C3Cc4ccccc4C3)CC2)=C(C(=O)OC)C1c1c(Cl)cccc1Cl (stereo not given) | 190 to 200 °C
82 | CCOC(=O)C1=C(C)NC(C=O)=C(C(=O)OCC)C1c1ccccc1Cl (stereo not given) | 87 to 88 °C
83 | CC(=O)COC1CC2C3CCC4=CC(=O)CCC4(C)C3(F)C(O)CC2(C)C1(O)C(=O)CO (stereo not given) | 203 to 208 °C
84 | CCCCCCC#CC(O)C1=Nc2ccccc2C(=O)C1C (stereo not given) | 148 to 149 °C
85 | CN1C(=O)C(C(=O)Nc2ccc(OC(F)(F)F)c(Cl)c2)C(=O)N(C)C1=O | 160 °C
86 | CC(=O)Nc1ccc(OC(=O)C=CC=C(C)C=CC=C(C)C=CC2=C(C)CCCC2(C)C)cc1 | 219 to 222 °C
87 | O=C(Nc1ccc2ccc(-c3ccccc3Cl)nc2n1)c1ccccc1 | 156 °C
88 | CCn1c(=O)c(Oc2ccc(F)cc2F)cc2cnc(NC3CCOCC3)nc21 | 199 to 206 °C
89 | CC(=O)C=Cc1cc2ccccc2o1 | 100 to 101 °C
90 | O=C(O)c1cn(-n2cnnc2)c2cc(F)c(F)cc2c1=O | 270 °C
91 | COC(=O)/C=C/COc1cc(-n2ncc(C(F)(F)F)c(C)c2=O)c(F)cc1Cl | 153 °C
92 | CCCCOC(=O)C(=O)Nc1ccccn1 | 35 to 37 °C
93 | O=C1Nc2ccccc2N(C(=O)Cc2ccccc2)c2cscc21 | 165 to 168 °C
94 | COC1(c2cccc(OCc3ccc4ccccc4c3)c2)CCN(CC#N)C1 (stereo not given) | 76 to 77 °C
95 | CCOc1cn(C)c2nc3cc(F)c(F)cc3cc2c1=O | > 270 °C
96 | C1=NCC2Cc3ccccc3Cc3cccc1c32 (stereo not given) | 91 to 93 °C
97 | Cc1cc(C(=O)N2Cc3cccn3Cc3ccccc32)ccc1C1=CCCCC1C(C)(C)C (stereo not given) | 127 to 129 °C
98 | CC#CCOc1ccc(S(=O)(=O)C2(C(=O)O)CCN(C(C)C)CC2)cc1 | 233 °C
99 | CCOCC1OC(n2cnc3c(N)nc(Cl)nc32)C(O)C1O (stereo not given) | 117 to 119 °C
100 | CCOC(=O)CCn1c(C(=O)Nc2nc(-c3cc(OC)c(Cl)cc3OC)c(CCC3CCCCC3)s2)cc2ccccc21 | 79 to 85 °C

Reference: a melting point compilation (Tetko et al.; mined from patent text by program, amines drawn as free bases though some values may be those of a salt)
